Assays:
[1] = target: Human immunodeficiency virus type 1 reverse transcriptase (Human immunodeficiency virus 1, UniProt Q72547); assay: (§1) Inhibition of HIV1 recombinant reverse transcriptase p66/p51 expressed in Escherichia coli
[2] = target: Human immunodeficiency virus type 1 reverse transcriptase (Human immunodeficiency virus 1) (UniProt Q72547); assay: Inhibition of HIV1 recombinant reverse transcriptase p66/p51 expressed in Escherichia coli at 200 ug/mL
[3] = tested on: Human immunodeficiency virus 1; assay: Antiviral activity against HIV1 LAV-1 in PHA-stimulated human PBMC after 6 days; assay type: functional, organism-based; settings: Human immunodeficiency virus 1, LAV-1, 144 h
PBMC = assay: Cytotoxicity against uninfected PHA-stimulated human PBMC assessed as thymidine incorporation after 24 hrs […]; assay type: cell-based
[4] = Selectivity index, ratio of IC50 for human PBMC to EC50 for HIV1 LAV-1
[5] = target: Human immunodeficiency virus type 1 reverse transcriptase (Human immunodeficiency virus 1) (UniProt Q72547); assay: as §1; parameters: concentration or dose not given beside the values; settings: concentration not given here

SMILES | IC50 [1] [µM] | inhibition [2] [%] | EC50 [3] [µM] | IC50 (PBMC) [µM] | Selectivity Index [4] | inhibition [5] [%]
O=C1C[C@@H](c2ccc(O)c(O)c2)Oc2c1c(O)cc(O)c2[C@H]1C(=O)c2c(O)cc(O)cc2O[C@@H]1c1ccc(O)cc1 | 170 | 96 |  |  |  | 
O=C1C[C@@H](c2ccc(O)cc2)Oc2c1c(O)cc(O[C@@H]1O[C@H](CO)[C@@H](O)[C@H](O)[C@H]1O)c2[C@H]1C(=O)c2c(O)cc(O)cc2O[C@@H]1c1ccc(O)cc1 |  | 1.5 |  |  |  | 
O=C1C[C@@H](c2ccc(O)cc2)Oc2c1c(O)cc(O)c2[C@H]1C(=O)c2c(O)cc(O)cc2O[C@@H]1c1ccc(O)cc1 | 236 | 86 | 38 | 88 | 2.3 | 
O=c1cc(-c2ccc(Oc3c(O)cc4oc(-c5ccc(O)cc5)cc(=O)c4c3O)cc2)oc2cc(O)cc(O)c12 [HINOKIFLAVONE] | 62 | 89.9 | 4.1 | 9 | 2.2 | 
O=C1C[C@@H](c2ccc(O)cc2)Oc2cc(O)c(-c3c(O)cc4c(c3O)C(=O)C[C@@H](c3ccc(O)cc3)O4)c(O)c21 |  | 22.1 |  |  |  | < 30
Cc1cn([C@H]2C[C@H](N=[N+]=[N-])[C@@H](CO)O2)c(=O)[nH]c1=O [ZIDOVUDINE] |  |  |  | > 100 | >10 | 
COc1ccc([C@@H]2CC(=O)c3c(OC)cc(OC)c([C@H]4C(=O)c5c(OC)cc(OC)cc5O[C@@H]4c4ccc(OC)cc4)c3O2)cc1 |  | 0 |  |  |  | 
COc1ccc([C@@H]2Oc3cc(OC)cc(OC)c3C(=O)[C@H]2c2c(OC)cc(OC)c3c(=O)cc(-c4ccc(OC)c(OC)c4)oc23)cc1 |  | 0 |  |  |  | < 30
COc1ccc(-c2cc(=O)c3c(OC)cc(OC)c([C@@H]4C(=O)c5c(OC)cc(OC)cc5O[C@H]4c4ccc(OC)cc4)c3o2)cc1 |  | 0 |  |  |  | < 30
O=c1cc(-c2ccc(O)cc2)oc2cc(O)cc(O)c12 [APIGENIN] | 443 | 72 |  |  |  | 
O=C1C[C@@H](c2ccc(O)cc2)Oc2cc(O)cc(O)c21 |  | 34.9 |  |  |  | 30
O=c1cc(-c2ccc(O)c(-c3c(O)cc(O)c4c(=O)cc(-c5ccc(O)cc5)oc34)c2)oc2cc(O)cc(O)c12 [AMENTOFLAVONE] | 119 | 97.3 | 94 | 35 | <1 | 
O=c1cc(-c2ccc(O)c(-c3c(O)cc4oc(-c5ccc(O)cc5)cc(=O)c4c3O)c2)oc2cc(O)cc(O)c12 [ROBUSTAFLAVONE] | 65 | 91.4 | > 100 | 77 | <1 | 
O=C1c2c(O)cc(O)cc2O[C@@H](c2ccc(O)cc2)[C@@H]1c1c(O)cc(O)c2c(=O)cc(-c3ccc(O)cc3)oc12 |  | 45.3 |  |  |  | 30
O=C1c2c(O)cc(O)cc2O[C@H](c2ccc(O)cc2)[C@H]1c1c(O)cc(O)c2c(=O)cc(-c3ccc(O)c(O)c3)oc12 [MORELLOFLAVONE] | 116 | 99.2 | 6.9 | 82 | 12 | 
Cc1ccc([C@@H]2CC(=O)c3c(cc(O)c(-c4c(O)cc(O)c5c4O[C@H](c4ccc(O)cc4)CC5=O)c3O)O2)cc1 |  | 14.1 |  |  |  | < 30

Reference: ChEMBL document CHEMBL1158321, “In vitro anti-HIV activity of biflavonoids isolated from Rhus succedanea and Garcinia multiflora” (J Nat Prod, 1997)
